Experimental data as given in the supplement of paper PMC10011410.
± gives the standard deviation of the averaged measurements.

Columns and labels:
[1] = test system: U-2 OS; assay: total intracellular glutathione (GSH + GSSG) relative to DMSO (% of control); higher = more glutathione; details: 24 h
Experimental: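 Total intracellular glutathione (GSH + GSSG) in U-2 OS cells by GSH/GSSG-Glo after 24 h compound treatment at 5, 10 and 20 uM (some at 40 and 80 uM), as percent of DMSO control. Five technical replicate plates, averaged.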

[2] = test system: U-2 OS; assay: cell viability (CellTiter-Glo) relative to DMSO (% of control); higher = more viable; details: 24 h
Experimental: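 Cell viability of U-2 OS cells by CellTiter-Glo after 24 h compound treatment at 5, 10 and 20 uM (some at 40 and 80 uM), measured in parallel with the glutathione assay, as percent of DMSO control. Five technical replicate plates, averaged.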

[3] = test system: U-2 OS; assay: relative cell count vs DMSO (cell painting) (fraction of DMSO control); higher = more cells remaining (less cytotoxic); details: 24 h
Outline: (§1)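 Images taken on an Opera Phenix of U-2 OS cells stained with MitoTracker, concanavalin A, phalloidin, wheat germ agglutinin, Hoechst and SYTO 14 were processed in CellProfiler, with features normalized to DMSO cells on the same plate. The cells, about 1,500 per well in 384-well plates, had been treated by pin tool for 24 h at 37 °C, usually at six 2-fold concentrations from 20 μM to 625 nM. The activity score measures Mahalanobis distance from DMSO wells, and cell count is expressed relative to DMSO wells. Each value averages four replicate plates.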

[4] = test system: U-2 OS; assay: cell painting activity score (Mahalanobis distance from DMSO wells); higher = stronger morphological phenotype; details: 24 h
Outline: as §1

[5] = test system: U-2 OS; assay: intracellular GSH:GSSG ratio (calculated); higher = more reduced glutathione pool; details: 24 h
Experimental: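 Intracellular glutathione in U-2 OS cells after 24 h compound treatment at 5, 10 and 20 uM (some at 40 and 80 uM). Total glutathione and GSSG were measured with the GSH/GSSG-Glo kit, and the GSH:GSSG ratio was calculated. Mean of five technical replicate plates.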

[6] = test system: U-2 OS; assay: AUC of culture confluence over time (live-cell imaging) (AUC (confluence % x time)); higher = more confluent culture (less growth inhibition)
Outline: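 The value is the area under the curve of confluence plotted against time. U-2 OS cells in F-12K medium with 10% FBS were seeded at 750 per well in 384-well plates, then treated by pin tool 24 h later, most compounds at 20, 10 and 5 μM with 0.2% DMSO. At 37 °C, an Incucyte S3 with a 10x objective imaged the wells every 4 h for up to 60 h.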

| Structure (SMILES) | total intracellular glutathione ([1]; 5 µM) | total intracellular glutathione ([1]; 10 µM) | total intracellular glutathione ([1]; 20 µM) | cell viability ([2]; 5 µM) | cell viability ([2]; 10 µM) | cell viability ([2]; 20 µM) | relative cell count ([3]; 0.625 µM) | relative cell count ([3]; 1.25 µM) | relative cell count ([3]; 2.5 µM) | relative cell count ([3]; 5 µM) | relative cell count ([3]; 10 µM) | relative cell count ([3]; 20 µM) | cell painting activity score ([4]; 0.625 µM) | cell painting activity score ([4]; 1.25 µM) | cell painting activity score ([4]; 2.5 µM) | cell painting activity score ([4]; 5 µM) | cell painting activity score ([4]; 10 µM) | cell painting activity score ([4]; 20 µM) | intracellular GSH:GSSG ratio ([5]; 5 µM) | intracellular GSH:GSSG ratio ([5]; 10 µM) | intracellular GSH:GSSG ratio ([5]; 20 µM) | intracellular GSH:GSSG ratio ([5]; 40 µM) | cell viability ([2]; 40 µM) | cell viability ([2]; 80 µM) | relative cell count ([3]; 40 µM) | relative cell count ([3]; 80 µM) | AUC of culture confluence over time ([6]; 5 µM) | AUC of culture confluence over time ([6]; 10 µM) | AUC of culture confluence over time ([6]; 20 µM) | AUC of culture confluence over time ([6]; 40 µM) | AUC of culture confluence over time ([6]; 80 µM) | cell painting activity score ([4]; 40 µM) | cell painting activity score ([4]; 80 µM) | intracellular GSH:GSSG ratio ([5]; 80 µM) |
| --- | --- | --- | --- | --- | --- | --- | --- | --- | --- | --- | --- | --- | --- | --- | --- | --- | --- | --- | --- | --- | --- | --- | --- | --- | --- | --- | --- | --- | --- | --- | --- | --- | --- | --- |
| CN(C)C/C=C/C(=O)Nc1cc2c(Nc3ccc(F)c(Cl)c3)ncnc2cc1O[C@H]1CCOC1 | 101 ± 4.4 | 110 ± 3.7 | 105 ± 2.6 | 63 ± 4 | 52.4 ± 3.5 | 47.2 ± 2.5 | 0.955 | 0.955 | 0.877 | 0.894 | 0.538 | 0.275 | 8.62 | 12.1 | 12.2 | 11.2 | 12.6 | 18.5 |  |  |  |  |  |  |  |  |  |  |  |  |  |  |  |  |
| CC(Cc1ccc(O)c(O)c1)C(C)Cc1ccc(O)c(O)c1 (configuration not stated) |  |  |  | 101 ± 4 | 104 ± 8.2 | 100 ± 5.4 | 0.839 | 0.852 | 0.896 | 0.816 | 0.835 | 0.359 | 4.39 | 8.68 | 11.8 | 13.1 | 15.4 | 12.1 | 24 | 47.5 | 22.3 | 22.5 | 87.1 ± 6.5 | 0.624 ± 0.073 | 0.261 | 0.228 | 42.1 | 39.8 | 43.8 | 28.7 | 19.1 | 17.4 | 22.6 |  |
| COc1cc(/C=C/c2cc(/C=C/c3ccc(O)c(OC)c3)n(-c3ccc(C(=O)[O-])cc3)n2)ccc1O.[Na+] |  |  |  | 101 ± 2.3 | 95.6 ± 2.5 | 93.6 ± 3.2 | 1.04 | 1.08 | 1.05 | 1.07 | 1.09 | 1.05 | 7.1 | 4.98 | 6.19 | 4.45 | 6.38 | 6.87 | 40 | 33 | 36.1 | 30.8 | 89.6 ± 3.4 | 68.4 ± 3.8 | 0.866 | 0.789 | 45.1 | 42.2 | 42.1 | 27.3 | 25.3 | 5.98 | 9 | 11.8 |
| CC(C)([C@](C1=O)(C2=O)C/C=C(C)\C)[C@@H](C[C@]31C[C@@H](C(C)(OC3=C2C(C4=CC(O)=C(C=C4)O)=O)C)C/C=C(C)\C)C/C=C(C)\C |  |  |  | 99.7 ± 2.4 | 62.6 ± 14 | 43.4 ± 17 | 1.21 | 1.12 | 1.19 | 1.15 | 1.04 | 0.492 | 3.69 | 3.85 | 6.36 | 7.13 | 13.5 | 18.6 | 27 | 22.3 | 10.9 |  | 0.646 ± 0.18 | 0.745 ± 0.2 |  |  |  |  |  |  |  |  |  | 17.8 |
| C[C@@H]1C[C@@H]([C@H](O)CC2CC(=O)NC(=O)C2)C(=O)[C@@H](C)C1 |  |  |  |  |  |  | 0.783 | 0.651 | 0.576 | 0.534 | 0.475 | 0.479 | 9.38 | 9.5 | 11.4 | 11.5 | 12.8 | 14.2 |  |  |  |  |  |  |  |  | 21 | 19.4 | 20.1 |  |  |  |  |  |
| N[C@@H](Cc1ccc(N(CCCl)CCCl)cc1)C(=O)O |  |  |  |  |  |  | 0.959 | 0.939 | 0.879 | 0.883 | 0.733 | 0.723 | 3.56 | 5.26 | 5.71 | 6.03 | 8.71 | 9.32 |  |  |  |  |  |  |  |  | 34.2 | 33.1 | 30.4 |  |  |  |  |  |
| O=c1c(O)c(-c2ccc(O)c(O)c2)oc2cc(O)ccc12 |  |  |  |  |  |  | 0.969 | 0.938 | 0.943 | 0.939 | 0.932 | 0.945 | 5.44 | 5.04 | 4.93 | 4.23 | 4.83 | 7.46 |  |  |  |  |  |  |  |  | 52.8 | 52 | 47.7 |  |  |  |  |  |
| CC1OC2=C(C(=O)C(=O)c3ccccc32)C1(C)C (configuration not stated) |  |  |  |  |  |  | 0.845 | 0.561 | 0.299 | 0.207 | 0.14 | 0.134 | 15 | 17.1 | 20.7 | 25.1 | 33.8 | 34.2 |  |  |  |  |  |  |  |  | 19.5 | 18.5 | 16 |  |  |  |  |  |
| CC(C)(C)C(=O)OCOc1cccc2c1C(=O)C1C3C=CC(CC3)C1C2=O (configuration not stated) |  |  |  |  |  |  | 0.973 | 0.963 | 0.986 | 0.929 | 0.787 | 0.554 | 5.7 | 6.22 | 7.75 | 8.44 | 12.8 | 13.5 |  |  |  |  |  |  |  |  | 37.6 | 26.3 | 20 |  |  |  |  |  |
| CC1(C)CC[C@]2(C(=O)O[C@@H]3O[C@H](CO)[C@@H](O)[C@H](O)[C@H]3O)CC[C@]3(C)C(=CC[C@@H]4[C@@]5(C)CC[C@H](O[C@@H]6O[C@H](C(=O)O)[C@@H](O)[C@H](O)[C@H]6O[C@@H]6O[C@H](CO)[C@@H](O)[C@H](O)[C@H]6O)C(C)(C)[C@@H]5CC[C@]43C)[C@@H]2C1 |  |  |  |  |  |  | 0.971 | 0.973 | 0.949 | 0.938 | 0.915 | 0.964 | 4.68 | 4.76 | 5.42 | 5.24 | 6.27 | 9.37 |  |  |  |  |  |  |  |  | 54.4 | 51.1 | 57.6 |  |  |  |  |  |
| Cc1csc(=NC2CCCCC2)n1/N=C/c1ccc(O)c(O)c1O |  |  |  |  |  |  | 1.01 | 1.01 | 0.985 | 1 | 1.02 | 0.405 | 6.78 | 7.67 | 6 | 5.67 | 5.75 | 7.13 |  |  |  |  |  |  |  |  | 49.7 | 53.9 | 40.5 |  |  |  |  |  |
| O=C1C(Cl)=C(NCCN2CCOCC2)C(=O)c2ncccc21 | 1.89 ± 0.18 | 2.12 ± 0.18 | 1.91 ± 0.3 | 0.868 ± 0.067 | 0.657 ± 0.091 | 0.819 ± 0.053 | 0.808 | 0.755 | 0.474 | 0.317 | 0.049 | 0.0399 | 5.61 | 10.4 | 14.7 | 21.2 | 26.9 | 26.9 |  |  |  |  |  |  |  |  | 16.5 | 14.9 | 12 |  |  |  |  |  |
| C[C@]12O[C@H](C[C@]1(O)CO)n1c3ccccc3c3c4c(c5c6ccccc6n2c5c31)CNC4=O |  |  |  |  |  |  | 0.654 | 0.525 | 0.521 | 0.516 | 0.453 | 0.138 | 20.6 | 21.4 | 22.3 | 23.1 | 23.1 | 22.8 |  |  |  |  |  |  |  |  | 25.9 | 23.6 | 23.8 |  |  |  |  |  |
| Cl.Nc1ccc(O)c2ccccc12 |  |  |  |  |  |  | 0.931 | 0.895 | 0.888 | 0.75 | 0.623 | 0.09 | 8.19 | 6.08 | 9.4 | 14.3 | 15.3 | 30.8 |  |  |  |  |  |  |  |  | 31.2 | 23.5 | 18 |  |  |  |  |  |
| CCCCCCCCCCCC1=C(O)C(=O)C=C(O)C1=O |  |  |  | 102 ± 5.8 | 97.6 ± 2.5 | 98.7 ± 5.4 | 0.898 | 0.848 | 0.944 | 0.907 | 0.478 | 0.08 | 4.78 | 4.55 | 7.31 | 4.7 | 8.2 | 25 | 32.2 | 27.4 | 35.5 | 15.8 | 70.1 ± 25 | 93.3 ± 4.2 | 0.237 | 0.332 |  |  |  |  |  | 22.2 | 21.8 | 31.4 |
| O.O=P1(N(CCCl)CCCl)NCCCO1 (configuration not stated) |  |  |  |  |  |  | 0.967 | 0.999 | 0.965 | 0.985 | 0.993 | 0.941 | 3.69 | 3.83 | 3.34 | 3.43 | 4.46 | 9.23 |  |  |  |  |  |  |  |  | 43.1 | 41.1 | 44.2 |  |  |  |  |  |
| O=C1c2ccccc2[Se](=O)N1c1ccccc1 (configuration not stated) |  |  |  |  |  |  | 0.985 | 0.943 | 0.991 | 0.954 | 0.805 | 0.111 | 5.57 | 10.4 | 15.8 | 17 | 15.8 | 13.8 |  |  |  |  |  |  |  |  | 31.5 | 18.8 | 18.2 |  |  |  |  |  |
| O=c1cc(N2CCOCC2)oc2c(-c3ccccc3)cccc12 |  |  |  |  |  |  | 1.02 | 0.978 | 0.971 | 0.962 | 1 | 0.948 | 3.52 | 4.47 | 4.5 | 5.36 | 6.81 | 9.26 |  |  |  |  |  |  |  |  | 42.2 | 40.7 | 31.5 |  |  |  |  |  |
